In experiment [1] the target is T1, NEP enzyme (Homo sapiens, UniProt P08473).
T1 construct: purchased R&D Systems, Minneapolis, Minn; 1182-ZN
Briefly: NEP enzyme inhibition assay (fluorogenic peptide substrate). The experiment is classed as biochemical. To be noted: values given as lower bounds; * = prodrugs, may not exhibit NEP activity in an in vitro assay; read-out: NEP pIC50 (converted). In outline: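 Recombinant human NEP was run with Mca-BK2 (10 μM) at room temperature in Tris buffer with 1 μM Zn. Compounds (10 μM–20 pM, 12 points) were pre-equilibrated 10 min, then reacted 20 min and acid-stopped. Fluorescence ex 320/em 405 nm, one-site competition fit gives pIC50. Thiol compounds may be pre-treated with 400 μM TCEP.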

Experiment [2] deals with T2, human AT1 receptor (Homo sapiens, UniProt P30556).
T2 construct: expressed in transfected cells; host or cells: CHO-K1
T2 sequence (P30556 1-359): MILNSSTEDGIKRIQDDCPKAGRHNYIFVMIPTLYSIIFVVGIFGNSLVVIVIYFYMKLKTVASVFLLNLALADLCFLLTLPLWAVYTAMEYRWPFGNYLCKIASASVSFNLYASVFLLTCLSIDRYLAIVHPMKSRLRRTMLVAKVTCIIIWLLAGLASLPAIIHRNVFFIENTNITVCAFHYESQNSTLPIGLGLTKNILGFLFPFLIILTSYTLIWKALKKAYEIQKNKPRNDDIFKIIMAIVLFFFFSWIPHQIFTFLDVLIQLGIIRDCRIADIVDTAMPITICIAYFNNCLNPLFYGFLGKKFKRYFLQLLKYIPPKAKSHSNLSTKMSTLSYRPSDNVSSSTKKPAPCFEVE
Briefly: AT1 radioligand binding assay (displacement of [Eu]AngII). The note with it: membranes of CHO-K1 cells expressing cloned human AT1 receptor; values given as lower bounds; read-out: AT1 pKi (converted). Put shortly: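 Membranes from CHO-K1 cells stably expressing cloned human AT1, 0.2 μg protein, in 50 mM Tris/HCl pH 7.5, 5 mM MgCl2, 0.025% BSA. Compounds displaced [Eu]AngII over 120 min in the dark at room temperature or 37° C; filter-bound TRF read. Nonspecific binding with 10 μM angiotensin II; IC50 converted to Ki via Cheng-Prusoff, reported as pKi.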

T1 sequence (P08473 52-750 limits assumed): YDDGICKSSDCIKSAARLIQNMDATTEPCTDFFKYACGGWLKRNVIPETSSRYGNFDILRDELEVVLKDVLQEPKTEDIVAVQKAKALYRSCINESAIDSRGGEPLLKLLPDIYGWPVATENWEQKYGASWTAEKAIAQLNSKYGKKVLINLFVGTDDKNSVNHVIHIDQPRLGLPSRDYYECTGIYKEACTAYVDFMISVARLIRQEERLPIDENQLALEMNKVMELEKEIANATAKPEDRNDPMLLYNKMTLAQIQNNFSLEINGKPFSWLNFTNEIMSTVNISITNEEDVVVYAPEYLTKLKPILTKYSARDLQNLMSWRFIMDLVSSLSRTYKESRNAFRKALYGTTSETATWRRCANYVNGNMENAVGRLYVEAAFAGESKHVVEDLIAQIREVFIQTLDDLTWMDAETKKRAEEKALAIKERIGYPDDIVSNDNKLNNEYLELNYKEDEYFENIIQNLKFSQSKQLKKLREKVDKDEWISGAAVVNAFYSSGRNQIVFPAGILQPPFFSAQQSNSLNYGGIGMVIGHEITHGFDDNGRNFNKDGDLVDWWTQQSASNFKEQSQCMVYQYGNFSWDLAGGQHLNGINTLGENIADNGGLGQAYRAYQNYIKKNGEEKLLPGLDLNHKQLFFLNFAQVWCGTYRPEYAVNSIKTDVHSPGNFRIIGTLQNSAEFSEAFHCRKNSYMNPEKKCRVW

With `CCCc1cc(C(=O)N[C@H](Cc2ccccc2)[C@@H](O)C(=O)O)nn1Cc1ccc(-c2ccccc2S(=O)(=O)NC(=O)c2cc(C)on2)cc1` [Example 7-5, (2R,3R)-2-Hydroxy-3-[(1-{2′[(5-methylisoxazole-3-carbonyl)sulfamoyl]biphenyl-4-ylmethyl}-5-propyl-1H-pyrazole-3-carbonyl)amino]-4-phenylbutyric acid], the IC50 in experiment [1] was no more than 1000 nM. Further, in experiment [2], the Ki is no more than 10 nM.
The corresponding values for `CCCc1cc(C(=O)N[C@H](Cc2ccccc2)[C@@H](O)C(=O)O)nn1Cc1ccc(-c2ccccc2S(=O)(=O)NC(=O)c2ccno2)cc1` [Example 7-6, (2R,3R)-2-Hydroxy-3-[(1-{2′-[(isoxazole-5-carbonyl)sulfamoyl]biphenyl-4-ylmethyl}-5-propyl-1H-pyrazole-3-carbonyl)amino]-4-phenylbutyric acid] are no more than 1000 nM and no more than 10 nM.
For `CCCc1cc(C(=O)N[C@@H](CC(=O)O)Cc2ccccc2C)nn1Cc1ccc(-c2ccccc2-c2nnn[nH]2)cc1` [Example 3-35, (R)-3-({5-Propyl-1-[2′-(1H-tetrazol-5-yl)biphenyl-4-ylmethyl]-1H-pyrazole-3-carbonyl}amino)-4-o-tolylbutyric acid], the IC50 in experiment [1] is no more than 10000 nM. In addition, the Ki in experiment [2] is no more than 10 nM.
`CCCc1cc(C(=O)N[C@H](Cc2ccccc2)[C@@H](O)C(=O)O)nn1Cc1cnc(-c2ccccc2-c2nnn[nH]2)cn1` [Example 17-3, (2R,3R)-3-(1-((5-(2-(1H-tetrazol-5-yl)phenyl)pyrazin-2-yl)methyl)-5-propyl-1H-pyrazole-3-carboxamido)-2-hydroxy-4-phenylbutanoic acid]: the IC50 in experiment [1] is no more than 100 nM. In addition, the Ki in experiment [2] is no more than 10 nM.
For `CCCc1cc(C(=O)N[C@H](CC(C)C)[C@@H](O)C(=O)O)nn1Cc1ccc(-c2ccccc2-c2nnn[nH]2)nc1` [Example 14-8, (2R,3R)-2-Hydroxy-5-methyl-3-[(5-propyl-1-{6-[2-(1H-tetrazol-5-yl)phenyl]pyridin-3-ylmethyl}-1H-pyrazole-3-carbonyl)amino]hexanoic acid], in experiment [1], the IC50 is no more than 1000 nM. Also, the Ki in experiment [2] was no more than 10 nM.
Take `CCCc1cc(C(=O)N[C@@H](Cc2ccccc2)CN(O)C=O)nn1Cc1ccc(-c2ccccc2S(=O)(=O)NC(C)=O)cc1` [Example 6-22, 1-(2′-Acetylsulfamoylbiphenyl-4-ylmethyl)-5-propyl-1H-pyrazole-3-carboxylic acid [(S)-1-benzyl-2-(formylhydroxyamino)ethyl]amide]: the IC50 in experiment [1] is no more than 100 nM. The Ki in experiment [2] was no more than 10 nM.
Take `CCCc1cc(C(=O)N[C@@H](CS)CC(C)C)nn1Cc1ccc(-c2ccccc2-c2nnn[nH]2)cc1` [Example 3-7, 5-Propyl-1-[2′-(1H-tetrazol-5-yl)biphenyl-4-ylmethyl]-1H-pyrazole-3-carboxylic acid ((R)-1-mercaptomethyl-3-methylbutyl)amide]: in experiment [1], the IC50 is no more than 100 nM. For the same compound, the Ki in experiment [2] is no more than 10 nM.
Consider `CCOc1cc(C(=O)N[C@H](Cc2ccccc2)[C@@H](O)C(=O)O)nn1Cc1ccc(-c2ccccc2-c2nnn[nH]2)cc1` [Example 3-9, (2R,3R)-3-({5-Ethoxy-1-[2′-(1H-tetrazol-5-yl)biphenyl-4-ylmethyl]-1H-pyrazole-3-carbonyl}amino)-2-hydroxy-4-phenylbutyric acid], for which, in experiment [1], the IC50 is no more than 1000 nM. The Ki in experiment [2] is no more than 100 nM.
As to `CCCc1cc(C(=O)N[C@@H](CC(=O)NO)Cc2ccccc2Cl)nn1Cc1ccc(-c2ccccc2-c2nnn[nH]2)cc1` [Example 3-15, 5-Propyl-1-[2′-(1H-tetrazol-5-yl)-biphenyl-4-ylmethyl]-1H-pyrazole-3-carboxylic acid [(R)-2-(2-chlorophenyl)-1-hydroxycarbamoylmethylethyl]amide], the IC50 in experiment [1] was no more than 100 nM. The Ki in experiment [2] was no more than 10 nM.
Turning to `CCCc1cc(C(=O)NC(CC(=O)NO)CC(C)C)nn1Cc1ccc(-c2ccccc2S(=O)(=O)NC(C)=O)c(F)c1` (stereo not drawn) [Example 6-21, 1-(2′-Acetylsulfamoyl-2-fluorobiphenyl-4-ylmethyl)-5-propyl-1H-pyrazole-3-carboxylic acid (1-hydroxycarbamoylmethyl-3-methylbutyl)amide], the IC50 in experiment [1] is no more than 100 nM. In addition, in experiment [2], the Ki was no more than 10 nM.
Taken in the same sequence, the figures for `CCCc1cc(C(=O)N[C@H](Cc2ccccc2)[C@@H](O)C(=O)O)nn1Cc1ccc(-c2ccccc2S(=O)(=O)NC(C)=O)c(F)c1` [Example 6-7, (2R,3R)-3-{[1-(2′-Acetylsulfamoyl-2-fluorobiphenyl-4-ylmethyl)-5-propyl-1H-pyrazole-3-carbonyl]amino}-2-hydroxy-4-phenylbutyric acid] were no more than 100 nM and no more than 10 nM.
Taken in the same sequence, the figures for `CCCc1cc(C(=O)N[C@@H](CC(=O)O)Cc2ccccc2F)nn1Cc1ccc(-c2ccccc2-c2nnn[nH]2)cc1` [Example 3-33, (R)-4-(2-Fluorophenyl)-3-({5-propyl-1-[2′-(1H-tetrazol-5-yl)biphenyl-4-ylmethyl]-1H-pyrazole-3-carbonyl}amino)butyric acid] were no more than 10000 nM and no more than 10 nM.
For the compound `CCOc1cc(C(=O)N[C@@H](CS)Cc2ccccc2)nn1Cc1ccc(-c2ccccc2C(=O)O)cc1F` [Example 9-2, 4′-[3-((R)-1-Benzyl-2-mercaptoethylcarbamoyl)-5-ethoxypyrazol-1-ylmethyl]-3′-fluorobiphenyl-2-carboxylic acid], in experiment [1], the IC50 is no more than 100 nM. The Ki in experiment [2] is no more than 100 nM.
Consider `CCCc1cc(C(=O)N[C@H](Cc2ccccc2)[C@@H](O)C(=O)O)nn1Cc1ccc(-c2ccccc2C(=O)O)cc1` [Example 9-5, 4′-[3-((1R,2R)-1-Benzyl-2-carboxy-2-hydroxyethylcarbamoyl)-5-propylpyrazol-1-ylmethyl]biphenyl-2-carboxylic acid], for which the IC50 in experiment [1] was no more than 100 nM. The Ki in experiment [2] was no more than 100 nM.
In the case of `CCCc1cc(C(=O)N[C@@H](CC(=O)O)Cc2ccccc2)nn1Cc1ccc(-c2ccccc2-c2nnn[nH]2)cc1F` [Example 3-30, (R)-3-({1-[3-Fluoro-2′-(1H-tetrazol-5-yl)biphenyl-4-ylmethyl]-5-propyl-1H-pyrazole-3-carbonyl}amino)-4-phenylbutyric acid], in experiment [1], the IC50 was no more than 10000 nM. For the same compound, the Ki in experiment [2] was no more than 10 nM.
As for `CCCc1cc(C(=O)N[C@H](Cc2ccccc2)[C@@H](O)C(=O)O)nn1Cc1ccc(-c2ccccc2C(=O)O)c(F)c1F` [Example 9-7, 4′-[3-((1R,2R)-1-Benzyl-2-carboxy-2-hydroxyethylcarbamoyl)-5-propylpyrazol-1-ylmethyl]-2′,3′-difluorobiphenyl-2-carboxylic acid], the IC50 in experiment [1] was no more than 100 nM. Besides, the Ki in experiment [2] was no more than 100 nM.
In the case of `CCCc1cc(C(=O)N[C@@H](CC(=O)O)Cc2ccccc2Cl)nn1Cc1cnc(-c2ccccc2-c2nnn[nH]2)nc1` [Example 18, (R)-4-(2-Chlorophenyl)-3-[(5-propyl-1-{2-[2-(1H-tetrazol-5-yl)phenyl]pyrimidin-5-ylmethyl}-1H-pyrazole-3-carbonyl)amino]butyric acid], the IC50 in experiment [1] was no more than 1000 nM. Also, in experiment [2], the Ki was no more than 100 nM.
For `CCCc1cc(C(=O)N[C@@H](CS)Cc2ccccc2)nn1Cc1ccc(-c2ccccc2S(=O)(=O)NC(C)=O)c(F)c1` [Example 6-6, 1-(2′-Acetylsulfamoyl-2-fluorobiphenyl-4-ylmethyl)-5-propyl-1H-pyrazole-3-carboxylic acid ((R)-1-benzyl-2-mercaptoethyl)amide], in experiment [1], the IC50 was no more than 100 nM. Besides, in experiment [2], the Ki was no more than 10 nM.
In the case of `CCOc1cc(C(=O)N[C@@H](CS)Cc2ccccc2)nn1Cc1ccc(-c2ccccc2-c2nnn[nH]2)cc1F` [Example 3-1, 5-Ethoxy-1-[3-fluoro-2′-(1H-tetrazol-5-yl)biphenyl-4-ylmethyl]-1H-pyrazole-3-carboxylic acid ((R)-1-benzyl-2-mercaptoethyl)amide], the IC50 in experiment [1] is no more than 100 nM. Also, the Ki in experiment [2] was no more than 10 nM.
The corresponding values for `CCCc1cc(C(=O)N[C@@H](CS)Cc2ccccc2)nn1Cc1ccc(-c2ccccc2S(=O)(=O)NC(C)=O)cc1` [Example 6-5, 1-(2′-Acetylsulfamoylbiphenyl-4-ylmethyl)-5-propyl-1H-pyrazole-3-carboxylic acid ((R)-1-benzyl-2-mercaptoethyl)amide] are no more than 100 nM and no more than 10 nM.
With `CCCc1cc(C(=O)N[C@@H](CC(=O)O)Cc2ccccc2C(F)(F)F)nn1Cc1ccc(-c2ccccc2-c2nnn[nH]2)cc1` [Example 3-36, (R)-3-({5-Propyl-1-[2′-(1H-tetrazol-5-yl)-biphenyl-4-ylmethyl]-1H-pyrazole-3-carbonyl}amino)-4-(2-trifluoromethylphenyl)butyric acid], in experiment [1], the IC50 is no more than 1000 nM. Also, the Ki in experiment [2] is no more than 100 nM.
